Source: patent US20060264460A1 (Wyeth, priority 2005, published 2006)
Each block holds one compound with its values, some of them ahead of it.

Target: T1, human Cot/Tpl2 kinase (Homo sapiens, UniProt P41279)
T1 construct: human Cot/Tpl2 kinase construct encoding residues 30-398; 6His (N); made in house; host or cells: Sf9 insect cells, baculovirus system (BD Biosciences)
Test: Tpl2/Cot kinase assay: GST-MEK1 phosphorylation detected by ELISA (DELFIA Eu)
Format: biochemical
Summary of the method: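 Substrate phosphorylation (GST-MEK1 Ser217/221) quantified by DELFIA europium ELISA, yielding IC50 values. Reaction: 1 h at 30° C, pH 7.2 MOPS buffer, 50 uM ATP, 35 nM GST-MEK1, 0.4 nM monomeric His-Tpl2 purified from Sf9 cells, compounds at 1% final DMSO; stopped with EDTA.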

[1] = Tpl2/Cot kinase, GST-MEK1 substrate, 50 uM ATP
[2] = 0.4 nM Tpl2, 35 nM GST-MEK1, 50 uM ATP, 1 h at 30° C.
[3] = Table 2, Tpl2/Cot kinase, GST-MEK1 substrate, 50 uM ATP
[4] = Tpl2/Cot kinase, GST-MEK1 substrate, 50 uM ATP, 1 h at 30° C., Table 2

T1 sequence (P41279 30-398): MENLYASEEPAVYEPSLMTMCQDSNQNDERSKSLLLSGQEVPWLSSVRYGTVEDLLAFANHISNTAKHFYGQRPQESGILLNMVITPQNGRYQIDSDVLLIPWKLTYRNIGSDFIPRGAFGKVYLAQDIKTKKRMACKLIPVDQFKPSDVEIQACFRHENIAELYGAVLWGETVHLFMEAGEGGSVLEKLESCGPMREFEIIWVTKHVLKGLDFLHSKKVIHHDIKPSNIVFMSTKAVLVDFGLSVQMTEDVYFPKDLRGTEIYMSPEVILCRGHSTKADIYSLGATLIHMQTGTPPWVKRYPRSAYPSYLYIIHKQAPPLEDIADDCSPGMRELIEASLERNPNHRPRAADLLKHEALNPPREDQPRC

Compound: N#Cc1cnc2c(CCC(=O)CO)cc(NCc3cnc[nH]3)cc2c1Nc1ccc(F)c(Cl)c1 [Example 310, 4-[(3-chloro-4-fluorophenyl)amino]-8-(4-hydroxy-3-oxybutyl)-6-[(1H-imidazol-5-ylmethyl)amino]quinoline-3-carbonitrile]
IC50 [2]: 150 nM

Compound: CC(C)S(=O)(=O)NCCCn1cc(CNc2cc(Cl)c3ncc(C#N)c(Nc4ccc(F)c(Cl)c4)c3c2)nn1 [Example 907]
IC50 [1]: 4.5 nM

Compound: N#Cc1cnc2c(Cl)cc(NCc3cn(CCCN4CCCNCC4)nn3)cc2c1Nc1ccc(F)c(Cl)c1 [Example 595]
IC50 [3]: 74 nM

Compound: CN1CCCC1CCn1cc(CNc2cc(Cl)c3ncc(C#N)c(Nc4ccc(Oc5ccccc5)cc4)c3c2)nn1 (stereo not drawn) [Example 990]
IC50 [4]: 830 nM

Compound: CN1CCCC1CCn1cc(CNc2cc(Br)c3ncc(C#N)c(Nc4ccc(F)c(Cl)c4)c3c2)nn1 (stereo not drawn) [Example 305, 8-Bromo-4-(3-chloro-4-fluoro-phenylamino)-6-({1-[2-(1-methyl-pyrrolidin-2-yl)-ethyl]-1H-[1,2,3]triazol-4-ylmethyl}-amino)-quinoline-3-carbonitrile]
IC50 [2]: 25 nM

Compound: N#Cc1cnc2c(Cl)cc(NCc3cn(C4CCN(CC(F)(F)F)CC4)nn3)cc2c1Nc1ccc(F)c(Cl)c1 [Example 1014]
IC50 [4]: 280 nM

Compound: N#Cc1cnc2c(Cl)cc(NCc3cn(Cc4ccnc(C(F)(F)F)c4)nn3)cc2c1Nc1ccc(F)c(Cl)c1 [Example 883]
IC50 [1]: 80 nM

Compound: N#Cc1cnc2ccc(NCc3nccn3CCN3CCOCC3)cc2c1Nc1ccc(F)c(Cl)c1 [Example 22, 4-(3-Chloro-4-fluoro-phenylamino)-6-{[1-(2-morpholin-4-yl-ethyl)-1H-imidazol-2-ylmethyl]-amino}-quinoline-3-carbonitrile]
IC50 [2]: 68 nM

Compound: CC(C)Cn1cc(CNc2cc(Cl)c3ncc(C#N)c(Nc4ccc(F)c(Cl)c4)c3c2)nn1 [Example 847]
IC50 [1]: 170 nM

Compound: CC(=O)Nc1cc(Br)c2ncc(C#N)c(Nc3ccc(F)c(Cl)c3)c2c1 [Example 660]
IC50 [1]: 4700 nM

Compound: N#Cc1cnc2c(Br)cc(NCc3cn(CC4CCCNC4)nn3)cc2c1Nc1ccc(F)c(Cl)c1 (stereo not drawn) [Example 718]
IC50 [1]: 33 nM

Compound: N#Cc1cnc2c(Br)cc(NCc3cc(-c4ccncc4)[nH]n3)cc2c1Nc1ccc(F)c(Cl)c1 [Example 455]
IC50 [3]: 13500 nM

Compound: CS(=O)(=O)c1cccc(CNc2cc(Cl)c3ncc(C#N)c(Nc4ccc(F)c(Cl)c4)c3c2)c1 [Example 185, 6-(3-(methylsulfonyl)benzylamino)-8-chloro-4-(3-chloro-4-fluorophenylamino)quinoline-3-carbonitrile]
IC50 [2]: 47 nM

Compound: N#Cc1cnc2ccc(NCCN3CCOCC3)cc2c1Nc1cccc(Cl)c1 [Example 350]
IC50 [3]: 690 nM

Compound: N#Cc1cnc2c(Br)cc(NCc3cn(CCO)nn3)cc2c1Nc1ccc(F)c(Cl)c1 [Example 686]
IC50 [1]: 28 nM

Compound: N#Cc1cnc2c(Cl)cc(NCc3cc[n+]([O-])cc3)cc2c1Nc1ccc(F)c(Cl)c1 [Example 271, 8-Chloro-4-[(3-chloro-4-fluorophenyl)amino]-6-{[(1-oxidopyridin-4-yl)methyl]amino}quinoline-3-carbonitrile]
IC50 [2]: 54 nM

Compound: CNC(=O)NCCCn1cc(CNc2cc(Cl)c3ncc(C#N)c(Nc4ccc(F)c(Cl)c4)c3c2)nn1 [Example 909]
IC50 [1]: 1 nM

Compound: N#CCN1CCC(n2cc(CNc3cc(Cl)c4ncc(C#N)c(Nc5ccc(F)c(Cl)c5)c4c3)nn2)CC1 [Example 998]
IC50 [4]: 22 nM

Compound: N#Cc1cnc2cc(OCCBr)c(NCc3cnc[nH]3)cc2c1Nc1ccc(F)c(Cl)c1 [Example 166, 6-((1H-imidazol-5-yl)methylamino)-7-(2-bromoethoxy)-4-(3-chloro-4-fluorophenylamino)quinoline-3-carbonitrile]
IC50 [2]: > 40000 nM

Compound: CC(=O)N1CCC(CN(C(C)=O)c2cc(Cl)c3ncc(C#N)c(Nc4ccc(F)c(Cl)c4)c3c2)CC1 [Example 865]
IC50 [1]: 380 nM

Compound: N#Cc1cnc2c(Cl)cc(NCc3cn(C4CCC(Nc5ccccn5)CC4)nn3)cc2c1Nc1ccc(F)c(Cl)c1 (stereo not drawn) [Example 1039]
IC50 [4]: 100 nM

Compound: N#Cc1cnc2ccc(NCc3ccc(S(N)(=O)=O)cc3)cc2c1NC1CCCC1 [Example 411]
IC50 [3]: 7300 nM

Compound: CC(C)(C)OC(=O)N1CCC(CCn2cc(CNc3cc(Br)c4ncc(C#N)c(Nc5ccc(F)c(Cl)c5)c4c3)nn2)CC1 [Example 503]
IC50 [3]: 130 nM

Compound: N#Cc1cnc2c(Br)cc(NCCN3CCOCC3)cc2c1Nc1cccc(Cl)c1 [Example 372]
IC50 [3]: 420 nM

Compound: N#Cc1cnc2ccc(NCc3cccc(N)c3)cc2c1Nc1ccc(F)c(Cl)c1 [Example 14, 6-(3-Amino-benzylamino)-4-(3-chloro-4-fluoro-phenylamino)-quinoline-3-carbonitrile]
IC50 [2]: 140 nM

Compound: N#Cc1cnc2c(Br)cc(NCc3ccoc3)cc2c1Nc1ccc(F)c(Cl)c1 [Example 299, 8-Bromo-4-(3-chloro-4-fluoro-phenylamino)-6-[(furan-3-ylmethyl)-amino]-quinoline-3-carbonitrile]
IC50 [2]: 480 nM

Compound: N#Cc1cnc2ccc(NCc3cccc(Br)n3)cc2c1Nc1ccc(F)c(Cl)c1 [Example 258, 6-{[(6-bromopyridin-2-yl)methyl]amino}-4-[(3-chloro-4fluorophenyl)amino]quinoline-3-carbonitrile]
IC50 [2]: 270 nM

Compound: CSCn1cc(CNc2cc(Br)c3ncc(C#N)c(Nc4ccc(F)c(Cl)c4)c3c2)nn1 [Example 530]
IC50 [3]: 12 nM

Compound: COCCOCCn1cc(CNc2cc(Br)c3ncc(C#N)c(Nc4ccc(F)c(Cl)c4)c3c2)nn1 [Example 743]
IC50 [1]: 100 nM

Other lines, results leading:

IC50 [1]: 200 nM
Compound: N#Cc1cnc2c(Cl)cc(NCC(=O)NCc3cccnc3)cc2c1Nc1ccc(F)c(Cl)c1 [Example 771]

IC50 [1]: 25 nM
Compound: CCN1CC(CCn2cc(CNc3cc(Cl)c4ncc(C#N)c(Nc5ccc(F)c(Cl)c5)c4c3)nn2)N(c2ccccc2)C1=O (stereo not drawn) [Example 791]

IC50 [4]: 610 nM
Compound: CCN1CCC(c2cc(CNc3cc(Br)c4ncc(C#N)c(Nc5ccc(F)c(Cl)c5)c4c3)[nH]n2)CC1 [Example 1045]

IC50 [1]: 43 nM
Compound: N#Cc1cnc2c(Br)cc(NCc3cn(CCCN4CCCNCC4)nn3)cc2c1Nc1ccc(F)c(Cl)c1 [Example 766]

IC50 [2]: 28 nM
Compound: CS(=O)(=O)c1cccc(CNc2ccc3ncc(C#N)c(Nc4ccc(F)c(Cl)c4)c3c2)c1 [Example 167, 6-(3-(methylsulfonyl)benzylamino)-4-(3-chloro-4-fluorophenylamino)quinoline-3-carbonitrile]

IC50 [3]: 1600 nM
Compound: N#Cc1cnc2ccc(NCc3ccn[nH]3)cc2c1NC1CCCC1 [Example 413]

IC50 [3]: > 40000 nM
Compound: CC(C)(C)OC(=O)N1CCC(Nc2ccc3ncc(C#N)c(Nc4ccc(F)c(Cl)c4)c3c2)CC1 [Example 379]

IC50 [3]: 48 nM
Compound: N#Cc1cnc2c(Cl)cc(NCC(=O)NCc3ccncc3)cc2c1Nc1ccc(F)c(Cl)c1 [Example 600]

IC50 [3]: 2400 nM
Compound: N#Cc1cnc2c(Cl)cc(NCC(=O)Nc3ccncc3)cc2c1Nc1ccc(F)c(Cl)c1 [Example 602]

IC50 [3]: 12 nM
Compound: CN1CCC(Cn2cc(CNc3cc(Br)c4ncc(C#N)c(Nc5ccc(F)c(Cl)c5)c4c3)nn2)CC1 [Example 499]

IC50 [4]: 24 nM
Compound: COC(=O)N1CCC(n2cc(CNc3cc(Cl)c4ncc(C#N)c(Nc5ccc(F)c(Cl)c5)c4c3)nn2)CC1 [Example 980]

IC50 [3]: 93 nM
Compound: CN(C)CC(c1ccccc1)n1cc(CNc2cc(Br)c3ncc(C#N)c(Nc4ccc(F)c(Cl)c4)c3c2)nn1 (stereo not drawn) [Example 575]

IC50 [4]: 31 nM
Compound: CN(C)C(=O)N1CCN(CCn2cc(CNc3cc(Cl)c4ncc(C#N)c(Nc5ccc(F)c(Cl)c5)c4c3)nn2)CC1 [Example 961]
